Assay results: PubChem BioAssay AID2061108 (Research group of Professor Matthew Todd, School of …, 2025)
Active and inactive are the calls of the source. How the calls were made is not given here.

What was measured:
Test in all cases: antibacterial and antifungal growth inhibition panel, profiling panel, Idler compounds, first plate, PMBN-permeabilized strains (AID 2061108)
Parameters in all cases: haemolysis: dose or concentration left out as unconfirmed
[1] = test system: M. avium growth inhibition, 10 uM; settings: M. avium growth inhibition, 10 µM
[2] = test system: A. baumannii ATCC 17978 growth inhibition, 100 uM; settings: S. aureus ATCC 9144 growth inhibition; measured here: A. baumannii ATCC 17978; at 100 µM; stronger effect = higher value
[3] = test system: A. baumannii ATCC 17978 + PMBN growth inhibition, 100 uM; settings: A. baumannii plus PMBN growth inhibition, 100 µM; stronger effect = higher value
[4] = test system: C. albicans NCPF 3281 growth inhibition, 100 uM; settings: S. aureus ATCC 9144 growth inhibition; measured here: C. albicans NCPF 3281; at 100 µM; stronger effect = higher value
[5] = test system: S. aureus ATCC 9144 growth inhibition, 100 uM; settings: S. aureus ATCC 9144 growth inhibition; at 100 µM; stronger effect = higher value
[6] = test system: E. coli NCTC 12923 + PMBN growth inhibition, 100 uM; settings: S. aureus ATCC 9144 growth inhibition; measured here: E. coli plus PMBN; at 100 µM; stronger effect = higher value
[7] = test system: E. coli NCTC 12923 growth inhibition, 100 uM; settings: E. coli NCTC 12923 growth inhibition, 100 µM; stronger effect = higher value
[8] = test system: M. abscessus growth inhibition, 10 uM; settings: S. aureus ATCC 9144 growth inhibition; measured here: M. abscessus; at 10 µM
[9] = test system: red blood cell haemolysis; settings: stronger effect = higher value; dose or concentration not given here

CN(C)C(=O)c1cncc(-c2cccc(C3(C#N)CC3)c2)c1
inhibition [1]: 0.148% | inhibition [2]: 3.37% | inhibition [3]: 23.7% | inhibition [4]: -67.1% | inhibition [5]: 4.91% (inactive) | inhibition [6]: -3.05% | inhibition [7]: -5% | inhibition [8]: -0.0258% | haemolysis [9]: 0.107%

O=C(NC1(c2ccc(Cl)cc2)COC1)c1ccc(N2CCCCC2)cc1
inhibition [1]: 0.252% | inhibition [2]: -22.2% | inhibition [3]: 13.9% | inhibition [4]: -54.3% | inhibition [5]: 4.21% (inactive) | inhibition [6]: -14% | inhibition [7]: -30% | inhibition [8]: -0.149% | haemolysis [9]: 0.302%

CCOc1ccc(-c2cc(=O)n(CC(=O)N3CCC(Cc4ccccc4)CC3)cn2)cc1
inhibition [1]: 0.214% | inhibition [2]: -13.5% | inhibition [3]: 11% | inhibition [4]: -40.2% | inhibition [5]: 5.33% (inactive) | inhibition [6]: 4.32% | inhibition [7]: -16.4% | inhibition [8]: -1.03% | haemolysis [9]: 2.13%

COc1cccc(C(=O)NCCOCc2cccc(N)c2)c1
inhibition [1]: 2.24% | inhibition [2]: -1.45% | inhibition [3]: 23.9% | inhibition [4]: -63.9% | inhibition [5]: 13.7% (inactive) | inhibition [6]: 4.39% | inhibition [7]: -10.5% | inhibition [8]: -0.253% | haemolysis [9]: 0.269%

O=C(NCCn1ccc2ccccc21)Nc1c[nH]c2ccccc12
inhibition [1]: 1.09% | inhibition [2]: 1.2% | inhibition [3]: 55% | inhibition [4]: -13.8% | inhibition [5]: 1.75% (inactive) | inhibition [6]: 8.41% | inhibition [7]: -5.81% | inhibition [8]: 0.723% | haemolysis [9]: 0.223%

Nc1ncnc2cc(-c3cccc(S(N)(=O)=O)c3)sc12
inhibition [1]: 50.5% | inhibition [2]: -9.52% | inhibition [3]: -11.6% | inhibition [4]: -67.9% | inhibition [5]: 27.3% | inhibition [6]: 91.6% | inhibition [7]: 1.22% | inhibition [8]: 0.72% | haemolysis [9]: -0.345%

O=C(NC1(c2ccc(Br)cc2)COC1)c1ccc(N2CCOCC2)cc1
inhibition [1]: -0.734% | inhibition [2]: 1.43% | inhibition [3]: 17.5% | inhibition [4]: -56.4% | inhibition [5]: 5.33% (inactive) | inhibition [6]: 4.32% | inhibition [7]: -5.27% | inhibition [8]: -1% | haemolysis [9]: 0.177%

COC(=O)c1ccc(C2CN(c3ccnc(S(=O)(=O)F)c3)C2)nc1
inhibition [1]: 0.0988% | inhibition [2]: 0.357% | inhibition [3]: 22.5% | inhibition [4]: -28.7% | inhibition [5]: 16.7% (inactive) | inhibition [6]: 11.4% | inhibition [7]: 1.62% | inhibition [8]: -1.03% | haemolysis [9]: -0.16%

O=C(N/N=C/C1CCOCC1)c1ccncc1
inhibition [1]: 4.75% | inhibition [2]: 0.357% | inhibition [3]: 13.2% | inhibition [4]: -26.5% | inhibition [5]: 16% (inactive) | inhibition [6]: 1.11% | inhibition [7]: -1.62% | inhibition [8]: -2.72% | haemolysis [9]: 1.63%

O=C(Nc1ccc(Oc2ccccc2)cc1)c1cccc(-c2nn[nH]n2)c1
inhibition [1]: 0.254% | inhibition [2]: -3.57% | inhibition [3]: 18.8% | inhibition [4]: -19% | inhibition [5]: 9.5% (inactive) | inhibition [6]: 5.93% | inhibition [7]: -9.59% | inhibition [8]: -0.704% | haemolysis [9]: 1.82%

Cc1cc(C)c(S(=O)(=O)N2CCC(C(=O)NCc3cccnc3)CC2)c(C)c1
inhibition [1]: -0.596% | inhibition [2]: -2.53% | inhibition [3]: 25.7% | inhibition [4]: -44.9% | inhibition [5]: 12.6% (inactive) | inhibition [6]: 5.73% | inhibition [7]: -1.08% | inhibition [8]: 0.182% | haemolysis [9]: 0.266%

N#Cc1ccc(NC2Cc3cccc(O)c3C2)cc1C(F)(F)F (configuration not stated)
inhibition [1]: -0.176% | inhibition [2]: 68.5% | inhibition [3]: 100% | inhibition [4]: 100% | inhibition [5]: 99.7% | inhibition [6]: 100% | inhibition [7]: 22.3% | inhibition [8]: -0.648% | haemolysis [9]: 2.84%

O=C(N/N=C/c1ccc2cccc(O)c2n1)c1ccncc1
inhibition [1]: -0.55% | inhibition [2]: 13.7% | inhibition [3]: 37.1% | inhibition [4]: -33.7% | inhibition [5]: 23.3% (inactive) | inhibition [6]: -1.73% | inhibition [7]: 8.65% | inhibition [8]: -0.775% | haemolysis [9]: 0.565%

CCCOc1cc(S(=O)(=O)n2cccn2)ccc1Br
inhibition [1]: -1.53% | inhibition [2]: -7.35% | inhibition [3]: 18.4% | inhibition [4]: -62.6% | inhibition [5]: -33.2% (inactive) | inhibition [6]: -8.29% | inhibition [7]: -38.1% | inhibition [8]: -0.42% | haemolysis [9]: 0.858%

CCC(C)C(N)C(=O)NS(=O)(=O)c1cccc(-c2cc3ncnc(N)c3s2)c1 (configuration not stated)
inhibition [1]: 10.3% | inhibition [2]: -17.8% | inhibition [3]: -15.9% | inhibition [4]: -21.7% | inhibition [5]: -39.6% (inactive) | inhibition [6]: -27.4% | inhibition [7]: -29.6% | inhibition [8]: -0.383% | haemolysis [9]: 0.094%

CC(C)NC(=O)Nc1cccc(C(=O)NC(C)c2cccc(Br)c2)c1 (configuration not stated)
inhibition [1]: -5.32% | inhibition [2]: 4.29% | inhibition [3]: 34.3% | inhibition [4]: 26.3% | inhibition [5]: 3.67% (inactive) | inhibition [6]: 28.6% | inhibition [7]: -0.541% | inhibition [8]: -1.08% | haemolysis [9]: -0.0024%

COc1ccc2c(c1)nc(-c1c[nH]c3cc(N4CCOCC4)ccc13)c1[nH]ccc12
inhibition [1]: 1.53% | inhibition [2]: 53.1% | inhibition [3]: 95.9% | inhibition [4]: -104% | inhibition [5]: 101% | inhibition [6]: 98.5% | inhibition [7]: 14.1% | inhibition [8]: 0.186% | haemolysis [9]: 0.675%

CS(=O)(=O)CCCNC[C@@H](O)c1ccccc1
inhibition [1]: 0.187% | inhibition [2]: -0.12% | inhibition [3]: 20.9% | inhibition [4]: -65.9% | inhibition [5]: 14.7% (inactive) | inhibition [6]: 1.22% | inhibition [7]: -6.89% | inhibition [8]: -0.256% | haemolysis [9]: 0.325%
